Values of other authors in US20260256792A1, “TREATMENT OF CHRONIC SPONTANEOUS URTICARIA BY ADMINISTERING (R)-2-[3-[4-AMINO-3-(2-FLUORO-4-PHENOXY-PHENYL)PYRAZOLO[3,4-D]PYRIMIDIN-1-YL]PIPERIDINE-1-CARBONYL]-4-METHYL-4-[4-(OXETAN-3-YL)PIPERAZIN-1-YL]PENT-2-ENENITRILE” (priority 2023, published 2026).

How the values were obtained:
[1] = system: mouse model of immune thrombocytopenia; conditions: mouse ITP model; cited from earlier work
healthy volunteers = conditions: cited from earlier work

SMILES: CC(C)(C=C(C#N)C(=O)N1CCC[C@@H](n2nc(-c3ccc(Oc4ccccc4)cc3F)c3c(N)ncnc32)C1)N1CCN(C2COC2)CC1 [rilzabrutinib, (R)-2-[3-[4-amino-3-(2-fluoro-4-phenoxy-phenyl)pyrazolo[3,4-d]pyrimidin-1-yl]piperidine-1-carbonyl]-4-methyl-4-[4-(oxetan-3-yl)piperazin-1-yl]pent-2-enenitrile]
- platelet loss [1]: reduction
- most commonly reported adverse events (healthy volunteers): gastrointestinal adverse events, including nausea/vomiting and diarrhea
- serious adverse events or deaths (healthy volunteers): No serious adverse events or deaths
